These results are taken from patent publication US20250326718A1, “4-PHENYL-2-PYRROLIDINONES AND METHODS OF USING THEREOF” (North Carolina State University, priority 2022, published 2025).

≈ marks a conversion by molar mass, not a printed value. Read-outs that look alike come from different tables or passages of the source. Bounds are passed on as bounds.

Holding throughout (type): cell-based
In one assay the test system is MSSA (ATCC 25923). The assay is described as follows: Broth microdilution MIC, MSSA ATCC 25923. The conditions noted are these: Staphylococcus aureus. For orientation: Broth dilution looks for growth in wells or tubes with falling amounts of substance.
The test system of the next assay is S. aureus 29213. The assay is described as follows: Broth microdilution MIC, S. aureus 29213. The conditions noted are these: Staphylococcus aureus.
For another assay, the system named is MRSA (ATCC 33591). As to the kind of experiment: Broth microdilution MIC, MRSA ATCC 33591. The conditions noted are these: Staphylococcus aureus; Tables 2-4; standardized conditions. The procedure: General information—Biological Assays. Methicillin-resistant and methicillin sensitive Staphylococcus aureus (MRSA and MSSA respectively) strains were obtained from the Laboratory of Professor Christian Melander (NCSU) (ATCC BAA 44 and 33591) and Dr. Jessica Gilbertie (ATCC 25923). Bacteria were kept in frozen stocks on glycerol at −80° C. until use. Bacteria was streaked onto tryptic-soy agar for colony isolation. Mueller-Hinton broth (MHB, 211443-BD), tryptic soy broth (TSB, Remel: R455052) and D-glucose (CAS: 492-62-6) were purchased from Fisher Scientific. Tryptic soy agar (TSA, cat. #22091) and Linezolid (cat. #P70014) were purchased from Sigma-Aldrich. Bacteria for biofilm inhibition were cultured overnight in TSB-G (tryptic soy broth with 0.5% glucose supplement) in 96 well plates. All assays were run in duplicate and repeated at least two separate times for MIC assays and at least three separate times for biofilm inhibition. All compounds were dissolved in molecular biology grade DMSO as 10 mM stock solutions. Optical densities were measured using a Thermo Scientific Genesys 20 spectrophotometer. Data for biofilm inhibition were collected using a BioTek ELx808 Microplate Reader. All graphs were generated and analyzed using GraphPad Prism 7.
Broth microdilution method for determination of minimum inhibitory concentrations. As prescribed by the Clinical and Laboratory Standards Institute (CLSI) M07-A8, Vol. 29 (2) MSSA (ATCC 25923) and MRSA (ATCC BAA 44 and 33591) was grown in MHB for 6-8 h; this culture was used to inoculate fresh MHB (5×10^5 CFU/mL). The resulting bacterial suspension was aliquoted (1 mL) into 1.5 mL Eppendorf tubes and compound was added from a 10 mM DMSO stock to achieve the desired initial starting concentration (typically 128 μg/mL). Linezolid (from a 10 mM DMSO stock) was used as a positive control. Inoculated media not treated with compound served as the negative control. The MIC was determined by microbroth dilution following the CLSI guidelines. The MIC was defined as the lowest concentration of antibiotic with no visible growth. The plate was sealed and incubated under stationary conditions at 37° C.
The antimicrobial activity of Compounds 1-15 was assessed initially against MSSA (ATCC 25923) and MRSA (ATCC 33591) strains. It was observed that almost all these compounds precipitated in aqueous solution at concentrations equal or higher than 8-16 μg/mL. In order to obtain preliminary results on the antimicrobial activity for these compounds, the standard conditions of the antimicrobial assays used where modified to favor the water solubility of these compounds.

[1] abbreviates: Tables 2-4, standardized conditions, read-out: MIC (S. aureus 25923).
Setting [2] is: Table 2, standardized conditions, read-out: MIC (S. aureus 25913).
The mark [3] stands for this setting: Tables 3-4, standardized conditions, read-out: MIC (S. aureus 29213).

On to `CCC1C(c2ccc(C(F)(F)F)cc2)=C(O)C(=O)N1CCOCCN` (centres unmarked) [Compound 21, 1-(2-(2-Aminoethoxy)ethyl)-5-ethyl-3-hydroxy-4-(4-(trifluoromethyl)phenyl)-1,5-dihydro-2H-pyrrol-2-one], for which the MIC with MSSA (ATCC 25923) (setting [1]), in the assay on S. aureus 29213 (setting [2]) and against MRSA (ATCC 33591) was greater than 128 µg/mL in each case.

On to `CCC1C(c2ccc(C(F)(F)F)cc2)=C(O)C(=O)N1CCCCNCCCN1C(=O)C(O)=C(c2ccc(C(F)(F)F)cc2)C1CC` (centres unmarked) [Compound 32, 5-Ethyl-1-(3-((4-(2-ethyl-4-hydroxy-5-oxo-3-(4-(trifluoromethyl)phenyl)-2,5-dihydro-1H-pyrrol-1-yl)butyl)amino)propyl)-3-hydroxy-4-(4-(trifluoromethyl)phenyl)-1,5-dihydro-2H-pyrrol-2-one], for which the MIC was 8 µg/mL (≈ 12.2 µM) in the assay with MSSA (ATCC 25923) (setting [1]), 64 µg/mL (≈ 97.9 µM) with S. aureus 29213 (setting [2]) and 64 µg/mL (≈ 97.9 µM) against MRSA (ATCC 33591).

For `CCC1C(c2ccc(C(F)(F)F)cc2)=C(O)C(=O)N1CCOCCOCCOCCN1C(=O)C(O)=C(c2ccc(C(F)(F)F)cc2)C1CC` (centres unmarked) [Compound 31, 1,1′-(((Oxybis(ethane-2,1-diyl))bis(oxy))bis(ethane-2,1-diyl))bis(5-ethyl-3-hydroxy-4-(4-(trifluoromethyl)phenyl)-1,5-dihydro-2H-pyrrol-2-one)], the MIC in the assay with MSSA (ATCC 25923) (setting [1]), with S. aureus 29213 (setting [2]) and with MRSA (ATCC 33591) was greater than 128 µg/mL in each case.

`O=C1C(O)=C(c2ccc(C(F)(F)F)cc2)C(Cc2ccccc2)N1c1ccc(Br)cc1` (centres unmarked) [Compound 46, 5-Benzyl-1-(4-bromophenyl)-3-hydroxy-4-(4-(trifluoromethyl)phenyl)-1,5-dihydro-2H-pyrrol-2-one]: the minimal inhibitory concentration (MIC) in the assay on MSSA (ATCC 25923) (setting [1]), in the assay on S. aureus 29213 (setting [3]) and against MRSA (ATCC 33591) was greater than 128 µg/mL in each case.

As for `O=C1C(O)=C(c2ccc(C(F)(F)F)cc2)C([C@H](O)c2ccccc2)N1c1ccc(C(F)(F)F)cc1` (stereo partly drawn) [Compound 56, 3-Hydroxy-5-((R)-hydroxy(phenyl)methyl)-1,4-bis(4-(trifluoromethyl)phenyl)-1,5-dihydro-2H-pyrrol-2-one], the MIC with MSSA (ATCC 25923) (setting [1]), in the assay on S. aureus 29213 (setting [3]) and against MRSA (ATCC 33591) was 2 µg/mL (≈ 4.05 µM) in each case.

Turning to `O=C1C(O)=C(c2ccc(C(F)(F)F)cc2)C(CCl)N1c1ccc(Br)cc1` (centres unmarked) [Compound 44, 1-(4-Bromophenyl)-5-(chloromethyl)-3-hydroxy-4-(4-(trifluoromethyl)phenyl)-1,5-dihydro-2H-pyrrol-2-one], the MIC was found to be 64 µg/mL (≈ 143 µM) in the assay with MSSA (ATCC 25923) (setting [1]), 128 µg/mL (≈ 287 µM) in the assay with S. aureus 29213 (setting [3]) and 64 µg/mL (≈ 143 µM) with MRSA (ATCC 33591).

With `O=C(O)c1cn(C2CC2)c2cc(N3CCNCC3)c(F)cc2c1=O` [Ciprofloxacin, ciprofloxacin, reference compound], the MIC in the assay on MSSA (ATCC 25923) (antibiotic alone, read-out: MIC value against MSSA ATCC 25923) turned out to be 0.5 µg/mL (≈ 1.51 µM).

On to `CCC1C(c2ccc(C(F)(F)F)cc2)=C(O)C(=O)N1CCCCCCN1C(=O)C(O)=C(c2ccc(C(F)(F)F)cc2)C1CC` (centres unmarked) [Compound 27, 1,1′-(Hexane-1,6-diyl)bis(5-ethyl-3-hydroxy-4-(4-(trifluoromethyl)phenyl)-1,5-dihydro-2H-pyrrol-2-one)], for which the MIC in the assay with MSSA (ATCC 25923) (setting [1]), with S. aureus 29213 (setting [2]) and in the assay with MRSA (ATCC 33591) was greater than 128 µg/mL in each case.

With `CCC1C(c2ccc(C(F)(F)F)cc2)=C(O)C(=O)N1CCCNCCCCNCCCN1C(=O)C(O)=C(c2ccc(C(F)(F)F)cc2)C1CC` (centres unmarked) [Compound 33, 1,1′-((Butane-1,4-diylbis(azanediyl))bis(propane-3,1-diyl))bis(5-ethyl-3-hydroxy-4-(4-(trifluoromethyl)phenyl)-1,5-dihydro-2H-pyrrol-2-one)], the MIC in the assay with MSSA (ATCC 25923) (setting [1]) and in the assay with S. aureus 29213 (setting [2]) was 4 µg/mL (≈ 5.63 µM) in each case.

Take `O=C1C(O)=C(c2ccc(C(F)(F)F)cc2)C([C@H](O)c2ccccc2)N1c1ccc(Br)cc1` (stereo partly drawn) [Compound 47, 1-(4-Bromophenyl)-3-hydroxy-5-((R)-hydroxy(phenyl)methyl)-4-(4-(trifluoromethyl)phenyl)-1,5-dihydro-2H-pyrrol-2-one]: the MIC in the assay with S. aureus 29213 (setting [3]) and against MRSA (ATCC 33591) was 8 µg/mL (≈ 15.9 µM) each time.

Broadly, the MIC is the lowest concentration that inhibits growth of the organism.
